# Strand notation (5' to 3'): a small letter for the sugar, then the base; units joined by * are phosphorothioate-linked, units joined directly phosphodiester-linked; [ ] holds rarer units or linkages, { } end groups; capitals alone tell only the bases. e = 2'-O-(2-methoxyethyl) (MOE); k = constrained ethyl (cEt); [5mC] = 5-methylcytosine; d = 2'-deoxy (DNA); m = 2'-O-methyl
# System: Yap1 mRNA
# Experiment: Antisense inhibition of human Yap1 in SNU-449 cells by modified oligonucleotides, single dose (Example 5, RTS36584)
# Format: cell-based
# Procedure: Modified oligonucleotides with additional chemistry modifications were designed to target a Yap1 nucleic acid and were tested for their effect on Yap1 mRNA level in SNU-449 cells. The modified oligonucleotides were tested in a series of experiments that had similar culture conditions. Cultured SNU-449 cells at a density of 10,000 cells per well were treated using free uptake with 2,000 nM of modified oligonucleotide. After a treatment period of approximately 48 hours, RNA was isolated from the cells and Yap1 mRNA levels were measured by quantitative real-time RTPCR. Human primer probe set RTS36584 was used to measure mRNA levels. Yap1 mRNA levels were normalized to total RNA content, as measured by RIBOGREEN®. Results are presented in the tables below as percent control of the amount of Yap1 mRNA relative to untreated control cells (% UTC). The modified oligonucleotides with percent control values marked with an asterisk (*) target the amplicon region of the primer probe set. Additional assays may be used to measure the potency and efficacy of the modified oligonucleotides targeting the amplicon region.
# Several different chemistry modifications were tested, which are specified in the Chemistry Notation column of the tables below, wherein the notation “d” refers to a 2′-deoxyribose sugar, the notation “s” refers to a phosphorothioate (P═S) internucleoside linkage, the notation “k” refers to a cEt modified sugar, the notation “y” refers to a 2′-O-methyl ribose sugar, the notation “e” refers to a MOE modified sugar, and the notation “^mC” refers to a 5-methylcytosine.
# “Start site” indicates the 5′-most nucleoside to which the gapmer is targeted in the human gene sequence. “Stop site” indicates the 3′-most nucleoside to which the gapmer is targeted human gene sequence. […] Activity of the modified oligonucleotide may be defined in a different experiment.
# [1] = Table 45, Yap1 mRNA as percent of untreated control, SNU-449 cells, single dose
# [2] = Table 40 (separate experiment), SNU-449 cells, 10,000 cells per well, free uptake, 2,000 nM oligonucleotide, approx. 48 hours, RTS36584, normalized to RIBOGREEN, Yap1 mRNA relative to untreated control
# [3] = Table 41, SNU-449 cells, 10,000 cells per well, free uptake, 2,000 nM modified oligonucleotide, approximately 48 hours, RTS36584, normalized to RIBOGREEN, Yap1 mRNA relative to untreated control cells
# [4] = Table 48, Yap1 mRNA level relative to untreated control, modified oligonucleotides targeting SEQ ID NO.: 1 and 2
# [5] = Table 52, Yap1 mRNA, modified oligonucleotides targeting SEQ ID NO: 1 and 2
substance,measurement,setting,value
1198529 (kT*kT*dA*dA*dA*dG*dT*dG*dT*dA*dT*eG*kT*e[5mC]*kA*eG; antisense) [Compound 1198529],YAP1 (% UTC),"Table 44 experiment, SNU-449 cells, 10,000 cells per well, free uptake, 2,000 nM, approximately 48 hours, RTS36584, Yap1 mRNA normalized to RIBOGREEN, relative to untreated control cells",17 % UTC
1198877 (kT*kT*dA*dA*dA*dG*dT*dG*dT*dA*dT*kG*eT*k[5mC]*eA*kG; antisense) [Compound 1198877],YAP1 (% UT),"Yap1 mRNA, percent of untreated control, modified oligonucleotides targeting SEQ ID NO: 1 and 2, Table 47",11 % UT
1198912 (kA*kA*d[5mC]*dA*d[5mC]*dT*dG*dA*dG*dG*dT*kA*dT*kA*dA*k[5mC]; antisense) [Compound 1198912],YAP1 (% UTC),[1],78 % UTC
1198729 (kA*eT*kA*dT*dT*dA*dG*dA*dG*dT*dA*dT*eG*eT*kG*kG; antisense) [Compound 1198729],YAP1 (% UTC),[2],21 % UTC
1198973 (kG*kA*d[5mC]*dT*dA*dA*dG*dT*dA*dA*dG*kG*dT*kT*dT*k[5mC]; antisense) [Compound 1198973],YAP1 (% UTC),[1],53 % UTC
1197255 (antisense kT*kT*kT*dA*mG*dG*dA*dT*dG*d[5mC]*dA*dT*dG*kG*kT*kT) [Compound 1197255],YAP1 (% UT),"Table 51, Yap1 mRNA remaining as percent of untreated control (UT), SNU-449 cells, single dose",38 % UT
1198418 (kT*d[5mC]*dA*dG*dA*dT*dT*dT*dA*dG*dG*kA*eT*kG*e[5mC]*kA; antisense) [Compound 1198418],YAP1 (% UTC),"Table 39, SNU-449 cells, 10,000 cells per well, free uptake, 2,000 nM oligonucleotide, approx. 48 hours, RTS36584, normalized to RIBOGREEN, Yap1 mRNA relative to untreated control",67 % UTC
1198765 (k[5mC]*eA*kG*dA*dT*dT*dT*dA*dG*dG*dA*dT*eG*e[5mC]*kA*kT) [Compound 1198765],YAP1 (% UTC),[2],23 % UTC
1198634 (kT*kG*dG*dA*dA*dA*dT*dT*dG*dT*d[5mC]*dT*k[5mC]*eA*kT*eG; antisense) [Compound 1198634],YAP1 (% UTC),[3],34 % UTC
1198313 (kA*kG*k[5mC]*dA*d[5mC]*dT*dT*dT*dT*dA*d[5mC]*dA*kT*eT*kA*eG; antisense) [Compound 1198313],YAP1 (% UT),[4],31 % UT
1200808 (kA*k[5mC]*kT*dG*dA*mG*dG*dT*dA*dT*dA*dA*d[5mC]*kT*kG*kG; antisense) [Compound 1200808],YAP1 (% UT),[5],45 % UT
1198893 (kA*kA*dA*dT*dT*dG*dT*d[5mC]*dT*d[5mC]*dA*kT*dG*k[5mC]*d[5mC]*kT; antisense) [Compound 1198893],YAP1 (% UTC),[1],58 % UTC
1200855 (kT*kT*kT*dA*dT*mG*dT*dA*dA*dT*dA*dT*dT*kG*k[5mC]*kA; antisense) [Compound 1200855],YAP1 (% UT),[5],56 % UT
1197201 (antisense kT*k[5mC]*kT*dT*dA*dT*dA*dT*dG*dG*dT*dT*dT*kT*kG*kT) [Compound 1197201],YAP1 (% UT),[4],46 % UT
1198827 (kT*kT*dA*d[5mC]*dA*dT*dT*dA*dG*dG*dA*kA*e[5mC]*kA*eA*kG; antisense) [Compound 1198827],YAP1 (% UT),"Table 46, Yap1 mRNA as percent of untreated control, SNU-449 cells, single dose",60 % UT
1198670 (antisense kT*kT*dA*dG*dG*dA*dT*dG*d[5mC]*dA*dT*dG*kG*eT*kT*eT) [Compound 1198670],YAP1 (% UTC),[3],55 % UTC
1198438 (kT*dG*dT*dA*dT*dG*dT*d[5mC]*dA*dG*dA*kA*eG*kA*eG*kT; antisense) [Compound 1198438],YAP1 (% UTC),[2],7 % UTC

# From patent publication US11214803B2, “Modulators of YAP1 expression” (Ionis Pharmaceuticals, Inc., priority 2019, dated 2022)
